Test results: PubChem BioAssay AID328 (DTP/NCI, 2004)
“And” between values parts separate entries of the source, which are not always exact repeats. Equal entries are not always repeated. Toxic doses and inconclusive results are not listed.

Test system: BDF1 mice, P388 leukemia ip, median survival T/C
Test: NCI In Vivo Anticancer Drug Screen. Data for tumor model P388 Leukemia (intraperitoneal) in B6D2F1 (BDF1) mice
Conditions: endpoint: median survival time, higher = longer survival
Summary of the method: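 Mice carrying the transplantable tumour receive compound or vehicle. Survival is followed in each arm, and the treated measure is divided by the vehicle measure.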

`O=C1NC(=S)S/C1=C\c1ccncc1` was tested, and the T/C (dose: 50.0 mg/kg/injection, schedule: Q01DX009 (ip), vehicle: saline with Tween-80) was 113 % of control, the T/C (dose: 100.0 mg/kg/injection, schedule: Q01DX009 (ip), vehicle: saline with Tween-80) was 106 % of control and the T/C (dose: 200.0 mg/kg/injection, schedule: Q01DX009 (ip), vehicle: saline with Tween-80) was 106 % of control. For the same compound, the T/C (dose: 400.0 mg/kg/injection, schedule: Q01DX009 (ip), vehicle: saline with Tween-80) was 106 % of control.

In the case of `Cc1c2c(nn1-c1ccccn1)C(=O)C=C(Nc1ccccc1)C2=O`, the T/C (dose: 8.8 mg/kg/injection, schedule: Q01DX009 (ip), vehicle: carboxymethylcellulose (CMC)) is reported as 91 % of control.

With `O=P1(N(CCCl)CCCl)NCCCO1` (stereo not given) the T/C (dose: 6.25 mg/kg/injection, schedule: Q01DX009 (ip), vehicle: saline) was 120 % of control, the T/C (dose: 10.0 mg/kg/injection, schedule: Q01DX010 (ip), vehicle: water) was 227 % of control and the T/C (dose: 10.0 mg/kg/injection, schedule: Q01DX015 (ip), vehicle: saline) was 167 % of control. The T/C (dose: 11.25 mg/kg/injection, schedule: Q01DX010 (ip), vehicle: saline) was 186 % of control, the T/C (dose: 12.5 mg/kg/injection, schedule: Q01DX009 (ip), vehicle: saline) was 124 % of control and 206 % of control and the T/C (dose: 15.0 mg/kg/injection, schedule: Q01DX015 (ip), vehicle: saline) was 202 % of control and 216 % of control. For the same compound, the T/C (dose: 20.0 mg/kg/injection, schedule: Q01DX010 (ip), vehicle: saline) was 235 % of control and 259 % of control and 280 % of control, the T/C (dose: 20.0 mg/kg/injection, schedule: Q01DX010 (ip), vehicle: water) was 272 % of control and the T/C (dose: 20.0 mg/kg/injection, schedule: Q01DX015 (ip), vehicle: saline) was 245 % of control and 219 % of control. The T/C (dose: 25.0 mg/kg/injection, schedule: Q01DX009 (ip), vehicle: saline) was 257 % of control and 165 % of control, the T/C (dose: 25.0 mg/kg/injection, schedule: Q01DX015 (ip), vehicle: saline) was 272 % of control and 349 % of control and the T/C (dose: 25.0 mg/kg/injection, schedule: Q04DX003 (ip), vehicle: saline) was 150 % of control and 179 % of control. For the same compound, the T/C (dose: 25.0 mg/kg/injection, schedule: Q04DX003 (ip), vehicle: water) was 283 % of control, the T/C (dose: 30.0 mg/kg/injection, schedule: Q01DX010 (ip), vehicle: saline) was 272 % of control and 300 % of control (2×) and the T/C (dose: 30.0 mg/kg/injection, schedule: Q01DX015 (ip), vehicle: saline) was 356 % of control and 423 % of control. For the same compound, the T/C (dose: 31.3 mg/kg/injection, schedule: Q01DX001 (ip), vehicle: saline) was 163 % of control, the T/C (dose: 37.5 mg/kg/injection, schedule: Q01DX001 (ip), vehicle: saline) was 153 % of control and the T/C (dose: 50.0 mg/kg/injection, schedule: Q01DX001 (ip), vehicle: saline) was 159 % of control and 175 % of control. The T/C (dose: 50.0 mg/kg/injection, schedule: Q01DX009 (ip), vehicle: saline) was 250 % of control and 111 % of control and 112 % of control, the T/C (dose: 50.0 mg/kg/injection, schedule: Q04DX003 (ip), vehicle: saline) was 258 % of control and 192 % of control and the T/C (dose: 50.0 mg/kg/injection, schedule: Q04DX003 (ip), vehicle: water) was 111 % of control. The T/C (dose: 50.0 mg/kg/injection, schedule: Q08DX002 (ip), vehicle: saline) was 218 % of control, the T/C (dose: 62.5 mg/kg/injection, schedule: Q01DX001 (ip), vehicle: saline) was 190 % of control and the T/C (dose: 70.0 mg/kg/injection, schedule: Q04DX003 (ip), vehicle: saline) was 258 % of control and 98 % of control. For the same compound, the T/C (dose: 75.0 mg/kg/injection, schedule: Q04DX003 (ip), vehicle: saline) was 557 % of control, the T/C (dose: 86.4 mg/kg/injection, schedule: Q01DX001 (ip), vehicle: saline) was 234 % of control and 117 % of control and 193 % of control and the T/C (dose: 89.0 mg/kg/injection, schedule: Q01DX001 (ip), vehicle: saline) was 197 % of control. For the same compound, the T/C (dose: 100.0 mg/kg/injection, schedule: Q01DX009 (ip), vehicle: saline) was 100 % of control and 112 % of control and 113 % of control, the T/C (dose: 100.0 mg/kg/injection, schedule: Q04DX003 (ip), vehicle: water) was 91 % of control and the T/C (dose: 100.0 mg/kg/injection, schedule: Q08DX002 (ip), vehicle: saline) was 267 % of control. The T/C (dose: 125.0 mg/kg/injection, schedule: Q01DX001 (ip), vehicle: saline) was 293 % of control, the T/C (dose: 144.0 mg/kg/injection, schedule: Q01DX001 (ip), vehicle: saline) was 297 % of control and 541 % of control and 198 % of control and the T/C (dose: 180.0 mg/kg/injection, schedule: Q01DX001 (ip), vehicle: water) was 244 % of control. The T/C (dose: 200.0 mg/kg/injection, schedule: Q04DX003 (ip), vehicle: saline) was 103 % of control, the T/C (dose: 200.0 mg/kg/injection, schedule: Q08DX002 (ip), vehicle: saline) was 270 % of control and the T/C (dose: 240.0 mg/kg/injection, schedule: Q01DX001 (ip), vehicle: saline) was 290 % of control and 544 % of control. The T/C (dose: 300.0 mg/kg/injection, schedule: Q01DX001 (ip), vehicle: water) was 268 % of control, the T/C (dose: 400.0 mg/kg/injection, schedule: Q08DX002 (ip), vehicle: saline) was 88 % of control and the T/C (dose: 500.0 mg/kg/injection, schedule: Q01DX001 (ip), vehicle: water) was 252 % of control. The T/C (dose: 600.0 mg/kg/injection, schedule: Q01DX001 (ip), vehicle: saline) was 54 % of control.
